Consider 51 compounds from patent US20050197371A1, “Urea derivatives as PDGFR modulators” (Ambit Biosciences Corporation, priority 2003, published 2005).

The structures appear in SMILES notation. Some results are limits rather than exact numbers.

In the first experiment the target is T1, PDGFRB(DKIN) (PDGFR-β) (Homo sapiens, UniProt P09619).
T1 construct: PDGFRB(DKIN)
The experiment in a line: Phage-display competitive binding assay, PDGFRB(DKIN). The following applies: T7 phage displaying human PDGFR-β, DKIN construct; read-out: Binding Assay: PDGFRB(DKIN). The procedure:
The term “ND” represents non-determined values.
Briefly, T7 phage displaying human PDGFR-β were incubated with an affinity matrix coated with known PDGFR-β inhibitor in the presence of various concentrations of the soluble competitor molecules.
As to `COc1cc(OC)nc(Oc2cccnc2C(=O)Nc2ccc(NC(=O)Nc3cc(C(C)(C)C)on3)cc2)n1` [Compound N56], the Kd fell in the range of 1000 to 10000 nM.

In the case of `CC(C)c1cc(NC(=O)Nc2ccc(NC(=O)C3CCN(c4ncc(C(F)(F)F)cc4Cl)CC3)cc2)no1` [Compound N59], the Kd lay in the range of 100 to 1000 nM.

Turning to `CC(C)(C)c1cc(NC(=O)Nc2ccc(NC(=O)c3cc4cccc5c4n(c3=O)CC5)cc2)no1` [Compound N60], the Kd was less than 100 nM.

`CC(C)(C)c1cc(NC(=O)Nc2ccc(NC(=O)c3cc4cccnc4nc3C(F)(F)F)cc2)no1` [Compound N61]: the Kd was in the range of 1000 to 10000 nM.

In the case of `CC(C)(C)c1cc(NC(=O)Nc2ccc(NC(=O)C3=Cc4cc(F)cc(S(C)(=O)=O)c4C3)cc2)no1` [Compound N62], the Kd was 1000 to 10000 nM.

For `Cn1nc(C(F)(F)F)c2cc(C(=O)Nc3ccc(NC(=O)Nc4cc(C(C)(C)C)on4)cc3)sc21` [Compound N64], the Kd was greater than 10000 nM.

As for `CC(=O)c1ccc(N2CCC(C(=O)Nc3ccc(NC(=O)Nc4cc(C(C)(C)C)on4)cc3)CC2)cc1` [Compound N65], the Kd lay within 100 to 1000 nM.

`CC(C)(C)c1cc(NC(=O)Nc2ccc(NC(=O)Cc3oc(-c4ccc(Cl)cc4)nc3-c3ccccc3)cc2)no1` [Compound N66]: the Kd was 100 to 1000 nM.

Regarding `Cn1nc(C(F)(F)F)c(C(=O)Nc2ccc(NC(=O)Nc3cc(C(C)(C)C)on3)cc2)c1Cl` [Compound N68], the Kd was in the range of 100 to 1000 nM.

As for `CC(C)(C)c1cc(NC(=O)Nc2ccc(NC(=O)c3ccccc3O)cc2)no1` [Compound N69], the Kd lay within 1000 to 10000 nM.

Take `COc1cc(OC)nc(Oc2ccccc2C(=O)Nc2ccc(NC(=O)Nc3cc(C(C)(C)C)on3)cc2)n1` [Compound N70]: the Kd was 1000 to 10000 nM.

Regarding `CC(C)(C)c1cc(NC(=O)Nc2ccc(NC(=O)c3nnsc3Oc3ccc(Cl)cc3)cc2)no1` [Compound N71], the Kd was in the range of 1000 to 10000 nM.

Take `CC(C)(C)c1cc(NC(=O)Nc2ccc(NC(=O)CSCC(=O)Nc3ccccc3)cc2)no1` [Compound N72]: the Kd is 100 to 1000 nM.

For `C=N/C(=N\C)Oc1cccc(C(=O)Nc2ccc(NC(=O)Nc3cc(C(C)(C)C)on3)cc2)c1` [Compound N74], the Kd is less than 100 nM.

In the case of `CC(C)c1oc(Cl)nc1C(=O)Nc1ccc(NC(=O)Nc2cc(C(C)(C)C)on2)cc1` [Compound N75], the Kd was less than 100 nM.

With `CC(C)(C)c1cc(NC(=O)Nc2ccc(NC(=O)c3ccc(-n4cc(-c5ccncn5)cn4)cc3)cc2)no1` [Compound N76], the Kd was 100 to 1000 nM.

As for `CC(C)(C)c1cc(C(=O)Nc2ccc(NC(=O)Nc3cc(C(C)(C)C)on3)cc2)n(-c2ccccc2)n1` [Compound N78], the Kd fell in the range of 1000 to 10000 nM.

As for `CC(=O)Oc1cccnc1C(=O)Nc1ccc(NC(=O)Nc2cc(C(C)(C)C)on2)cc1` [Compound N79], the Kd is less than 100 nM.

Take `CC(C)(C)c1cc(NC(=O)Nc2ccc(NC(=O)Cc3noc4ccccc34)cc2)no1` [Compound N80]: the Kd was less than 100 nM.

Regarding `CC(C)(C)c1cc(NC(=O)Nc2ccc(NC(=O)c3cccc[n+]3[O-])cc2)no1` [Compound N81], the Kd was less than 100 nM.

With `CC(C)(C)c1cc(NC(=O)Nc2ccc(NC(=O)c3nocc3C(C)(C)C)cc2)no1` [Compound N82], the Kd is 100 to 1000 nM.

`CCOC(=O)CCc1c(C)[nH]c(C(=O)Nc2ccc(NC(=O)Nc3cc(C(C)(C)C)on3)cc2)c1C` [Compound N83]: the Kd is less than 100 nM.

Consider `Cc1ccc(NC(=O)c2ccc(NC(=O)Nc3cc(C(C)(C)C)on3)cc2)cc1` [Compound N84], for which the Kd is less than 100 nM.

As to `CNC(=O)c1ccc(NC(=O)Nc2cc(C(C)(C)C)on2)cc1` [Compound N85], the Kd was in the range of 100 to 1000 nM.

For the compound `CC(C)(C)c1cc(NC(=O)Nc2ccc(C(N)=O)cc2)no1` [Compound N86], the Kd was in the range of 100 to 1000 nM.

As to `CC(C)(C)c1cc(NC(=O)Nc2ccc(C(=O)NCCO)cc2)no1` [Compound N87], the Kd is 100 to 1000 nM.

Consider `C[C@H](NC(=O)c1ccc(NC(=O)Nc2cc(C(C)(C)C)on2)cc1)c1ccccc1` [Compound N88], for which the Kd was 100 to 1000 nM.

Consider `CC(C)(C)c1cc(NC(=O)Nc2ccc(C(=O)NCc3ccccc3)cc2)no1` [Compound N89], for which the Kd was in the range of 100 to 1000 nM.

With `CC(C)(C)c1cc(NC(=O)Nc2ccc(C(=O)Nc3ccccc3)cc2)no1` [Compound N90], the Kd is 100 to 1000 nM.

As for `CC(C)(C)c1cc(NC(=O)Nc2ccc(NC(=O)C3CCCCC3)cc2)no1` [Compound N91], the Kd is 100 to 1000 nM.

As to `Cc1ccc(C(=O)Nc2ccc(NC(=O)Nc3cc(C(C)(C)C)on3)cc2)cc1` [Compound N92], the Kd was less than 100 nM.

On to `C/C=C/C(=O)Nc1ccc(NC(=O)Nc2cc(C(C)(C)C)on2)cc1` [Compound N93], for which the Kd fell in the range of 1000 to 10000 nM.

With `CC(C)(C)c1cc(NC(=O)Nc2ccc(NC(=O)c3c(Cl)cccc3Cl)cc2)no1` [Compound N94], the Kd was 100 to 1000 nM.

As to `CC(C)(C)c1cc(NC(=O)Nc2ccc(NC(=O)c3c(F)cccc3C(F)(F)F)cc2)no1` [Compound N95], the Kd fell in the range of 1000 to 10000 nM.

Regarding `CC(C)(C)c1cc(NC(=O)Nc2ccc(NC(=O)CCc3ccccc3)cc2)no1` [Compound N96], the Kd lay in the range of 100 to 1000 nM.

`CC(C)(C)c1cc(NC(=O)Nc2ccc(C(=O)NCc3ccc4c(c3)OCO4)cc2)no1` [Compound N97]: the Kd was in the range of 1000 to 10000 nM.

Take `CC(C)(C)c1cc(NC(=O)Nc2ccc(NC(=O)Cc3ccc(OCc4ccccc4)cc3)cc2)no1` [Compound N98]: the Kd is greater than 10000 nM.

Regarding `CC(C)(C)c1cc(NC(=O)Nc2ccc(C(=O)Nc3ccc(OCC4CCC4)cc3)cc2)no1` [Compound N100], the Kd was 100 to 1000 nM.

In the case of `CC(C)(C)OC(=O)Nc1ccc(NC(=O)Nc2cc(C(C)(C)C)on2)cc1` [Compound N101], the Kd was in the range of 100 to 1000 nM.

In the case of `CCN(CC)CCNC(=O)c1ccc(NC(=O)Nc2cc(C(C)(C)C)on2)cc1` [Compound N102], the Kd was greater than 10000 nM.

With `Cc1ccncc1C(=O)Nc1ccc(NC(=O)Nc2cc(C(C)(C)C)on2)cc1` [Compound N104], the Kd was in the range of 100 to 1000 nM.

As for `COc1cccc(-c2ccc(C(=O)Nc3ccc(NC(=O)Nc4cc(C(C)(C)C)on4)cc3)o2)c1` [Compound N105], the Kd was in the range of 100 to 1000 nM.

As for `CC(C)(C)c1cc(NC(=O)Nc2ccc(NC(=O)Cc3csc4ccccc34)cc2)no1` [Compound N107], the Kd lay within 1000 to 10000 nM.

In the case of `CC(C)(C)c1cc(NC(=O)Nc2ccc(NC(=O)c3cnc4ccccc4c3)cc2)no1` [Compound N108], the Kd was less than 100 nM.

For the compound `CC(C)(C)c1cc(NC(=O)Nc2ccc(NC(=O)c3cccc4nsnc34)cc2)no1` [Compound N109], the Kd was less than 100 nM.

For `CC(C)(C)c1cc(NC(=O)Nc2ccc(NC(=O)c3ccc4cnccc4n3)cc2)no1` [Compound N110], the Kd is less than 100 nM.

As for `CC(C)(C)c1cc(NC(=O)Nc2ccc(NC(=O)c3cccc4c3OCCO4)cc2)no1` [Compound N111], the Kd fell in the range of 100 to 1000 nM.

For `CC(C)(C)c1cc(NC(=O)Nc2ccc(NC(=O)c3cc(Cl)cn(Cc4ccccc4)c3=O)cc2)no1` [Compound N112], the Kd lay within 100 to 1000 nM.

In the case of `COC(=O)c1ccc(C(=O)Nc2ccc(NC(=O)Nc3cc(C(C)(C)C)on3)cc2)nc1` [Compound N113], the Kd is less than 100 nM.

The experiment is the same for the next values; noted with them: read-out: Binding Assay: PDGFRB(DKIN); T7 phage displaying human PDGFR-β, DKIN construct.
In the case of `CC(C)(C)c1cc(NC(=O)Nc2ccc(NC(=O)c3cn4c(n3)sc3ccccc34)cc2)no1` [Compound N73], the Kd is less than 100 nM.

Turning to `CC(C)(C)c1cc(NC(=O)Nc2ccc(NC(=O)c3cc4ccccc4cn3)cc2)no1` [Compound N106], the Kd is less than 100 nM.
